From article PMC8075848 (Cell Reports, 2021)
Like-named read-outs stand apart in the source and are kept apart here.

What was measured:
SARS-CoV-2 M^pro [1] = target: T1, SARS-CoV-2 M^pro (Severe acute respiratory syndrome coronavirus 2, UniProt P0DTD1); experiment: M^pro FRET proteolysis inhibition assay; format: biochemical; details: 20 μM drug, 10 nM M^pro
SARS-CoV-2 M^pro [2] = target: T1, SARS-CoV-2 M^pro; experiment: M^pro 1D 1H-NMR proteolysis inhibition assay; format: biochemical; details: 50 μM inhibitor, 100 nM M^pro
SARS-CoV-2 [3] = experiment: SARS-CoV-2 replication inhibition in Vero E6 cells; format: cell-based; details: up to 50 μM drug
SARS-CoV-2 [4] = format: cell-based
PL^pro = details: ref Anson et al., 2020; cited from earlier work
SARS-CoV-2 [5] = experiment: Antiviral combination assay with remdesivir in Vero E6 cells; format: cell-based; details: for Effect of HCV drug on the antiviral activity of remdesivir, in words / Effect of remdesivir on the antiviral activity (IC90) of the HCV drug, in words: Vero cells; for Effect of HCV drug on the antiviral activity of remdesivir, in words: IC90 of remdesivir with increasing HCV drug; for Effect of remdesivir on the antiviral activity (IC90) of the HCV drug, in words: addition of 1.25 μM remdesivir
M^pro = details: cited from earlier work; for Inhibition of M^pro proteolytic activity: ref Anson et al., 2020, Fu et al., Kneller et al., 2020a, Ma et al.
SARS-CoV-2 [6] = details: ref Anson et al., 2020, Fu et al., Ma et al.; cited from earlier work
SARS-CoV-2 PL^pro = SARS-CoV-2 PL^pro (Severe acute respiratory syndrome coronavirus 2, UniProt P0DTD1); format: biochemical; details: for PL^pro protease activity inhibition, in words: 20 μM drug (grazoprevir in Fig S6: 100 µM)
SARS-CoV-2 [7] = format: cell-based; remark: listed apart in the source
SARS-CoV-2 [8] = experiment: Time-of-addition assay; format: cell-based; details: BOC 50 μM, GRZ 25 μM, NAR 50 μM, VAN 5 μM, SIM 5 μM, added -2, 0, +2, +4 h
Vero E6 cells = details: MTT
SARS-CoV-2 [9] = details: ref Lo et al., 2021; cited from earlier work

SMILES	M^pro inhibition activity in FRET assay, in words (SARS-CoV-2 M^pro [1])	M^pro inhibitory activity in 1D 1H-NMR assay, in words (SARS-CoV-2 M^pro [2])	Inhibition of virus replication in Vero E6 cells, in words (SARS-CoV-2 [3])	Synergy Score (ZIP, SynergyFinder) with remdesivir (SARS-CoV-2 [5])	PL^pro protease activity inhibition, in words (SARS-CoV-2 PL^pro)	other results
C=C[C@@H]1C[C@]1(NC(=O)[C@@H]1C[C@@H](Oc2ncc(OC)c3ccc(Cl)cc23)CN1C(=O)[C@@H](NC(=O)OC(C)(C)C)C(C)(C)C)C(=O)NS(=O)(=O)C1CC1 [ASU, Asunaprevir]	not detected	moderate inhibitory activity	inhibited SARS-CoV-2 virus replication at concentrations significantly lower than the concentrations that cause cytotoxicity			Inhibition of virus replication in human 293T cells, in words (SARS-CoV-2 [4]): did not inhibit viral replication in human cells at concentrations lower than those exhibiting cytotoxicity; Inhibition of PL^pro (PL^pro): inhibit
CC(C)(C)NC(=O)N[C@H](C(=O)N1C[C@H]2[C@@H]([C@H]1C(=O)NC(CC1CCC1)C(=O)C(N)=O)C2(C)C)C(C)(C)C (stereo partly shown) [BOC, Boceprevir]		substantial enzyme inhibition activity	inhibited SARS-CoV-2 virus replication at concentrations significantly lower than the concentrations that cause cytotoxicity	−7.6		Effect of HCV drug on the antiviral activity of remdesivir, in words (SARS-CoV-2 [5]): did not significantly affect the antiviral activity of remdesivir; Effect of remdesivir on the antiviral activity (IC90) of the HCV drug, in words (SARS-CoV-2 [5]): did not significantly affect; Inhibition of M^pro proteolytic activity (M^pro): inhibit; Inhibition of SARS-CoV-2 replication in Vero cells (SARS-CoV-2 [6]): inhibit
CC(C)(C)OC(=O)N[C@H]1CCCCC/C=C\[C@@H]2C[C@@]2(C(=O)NS(=O)(=O)C2CC2)NC(=O)[C@@H]2C[C@@H](OC(=O)N3Cc4cccc(F)c4C3)CN2C1=O [DAN, Danoprevir]			did not inhibit virus replication			Inhibition of virus replication in human 293T cells, in words (SARS-CoV-2 [4]): did not inhibit virus replication
CC(C)C[C@H](NC(=O)OCc1ccccc1)C(=O)N[C@@H](CC1CCNC1=O)C(O)S(=O)(=O)[O-].[Na+] (stereo partly shown) [GC-376]						Interaction with remdesivir (additive / synergistic) (SARS-CoV-2 [5]; combination with remdesivir, Vero E6 cells): additive (an additive interaction has a score between −10 to +10); Specificity for M^pro relative to PL^pro (M^pro; ref Sacco et al., 2020): specific
CC(C)(C)[C@@H]1NC(=O)O[C@@H]2CCC[C@H]2OC/C=C/C(F)(F)c2nc3ccccc3nc2O[C@@H]2C[C@@H](C(=O)N[C@]3(C(=O)NS(=O)(=O)C4(C)CC4)C[C@H]3C(F)F)N(C2)C1=O [GLE, Glecaprevir]			did not inhibit virus replication			Inhibition of virus replication in human 293T cells, in words (SARS-CoV-2 [4]): did not inhibit virus replication
C=C[C@@H]1C[C@]1(NC(=O)[C@@H]1C[C@@H]2CN1C(=O)[C@H](C(C)(C)C)NC(=O)O[C@@H]1C[C@H]1CCCCCc1nc3ccc(OC)cc3nc1O2)C(=O)NS(=O)(=O)C1CC1.O [GRZ, Grazoprevir]	not detected	moderate inhibitory activity	inhibited SARS-CoV-2 virus replication at concentrations significantly lower than the concentrations that cause cytotoxicity	+25.0	inhibit	PL^pro initial rate relative to absence of inhibitor (vo/vo,i) (SARS-CoV-2 PL^pro; 100 μM drug concentration): 32% ± 7%; Effect of HCV drug on the antiviral activity of remdesivir, in words (SARS-CoV-2 [5]): increase the antiviral activity of remdesivir; Effect of remdesivir on the antiviral activity (IC90) of the HCV drug, in words (SARS-CoV-2 [5]): substantially reduces; Interaction with remdesivir (additive / synergistic) (SARS-CoV-2 [7]): synergistic (key: a synergistic interaction between drugs has a score greater than +10; an additive interaction has a score between −10 to +10; an antagonistic interaction has a score of less than −10); Synergy Score (ZIP, SynergyFinder) with remdesivir (SARS-CoV-2 [7]): +20.3; Inhibition of virus replication by time of drug addition, in words (SARS-CoV-2 [8]): inhibited by the addition of these drugs as late as 4 h post-infection; Inhibition of PL^pro (PL^pro): inhibit
CCCC[C@H](NC(=O)[C@@H]1[C@@H]2[C@H](CN1C(=O)[C@@H](NC(=O)NC1(CS(=O)(=O)C(C)(C)C)CCCCC1)C(C)(C)C)C2(C)C)C(=O)C(=O)NC1CC1 [NAR, Narlaprevir]		substantial enzyme inhibition activity	inhibited SARS-CoV-2 virus replication at concentrations significantly lower than the concentrations that cause cytotoxicity			Inhibition of M^pro proteolytic activity (M^pro): inhibit
Cc1cnc(C(=O)N[C@H]2CCCCC/C=C\[C@@H]3C[C@@]3(C(=O)NS(=O)(=O)C3CC3)NC(=O)[C@@H]3C[C@@H](Oc4nc5ccccc5c5ccccc45)CN3C2=O)cn1 [PAR, Paritaprevir]	does not inhibit	does not inhibit	inhibited SARS-CoV-2 virus replication at concentrations significantly lower than the concentrations that cause cytotoxicity	+17.3	inhibit	
CCC(CC)COC(=O)[C@H](C)N[P@](=O)(OC[C@H]1O[C@@](C#N)(c2ccc3c(N)ncnn23)[C@H](O)[C@@H]1O)Oc1ccccc1 [Remdesivir, remdesivir]						Inhibition of virus replication by time of drug addition, in words (SARS-CoV-2 [8]): decreased its ability to suppress virus infection
COc1ccc2c(O[C@@H]3C[C@H]4C(=O)N[C@]5(C(=O)NS(=O)(=O)C6CC6)C[C@H]5/C=C\CCCCN(C)C(=O)[C@@H]4C3)cc(-c3nc(C(C)C)cs3)nc2c1C [SIM, Simeprevir]	not detected	moderate inhibitory activity	inhibited virus replication with low IC50 values	+30.2	inhibit	Effect of HCV drug on the antiviral activity of remdesivir, in words (SARS-CoV-2 [5]): increase the antiviral activity of remdesivir; Effect of remdesivir on the antiviral activity (IC90) of the HCV drug, in words (SARS-CoV-2 [5]): substantially reduces; Inhibition of virus replication by time of drug addition, in words (SARS-CoV-2 [8]): inhibited by the addition of these drugs as late as 4 h post-infection; Cytotoxicity in Vero E6 cells, in words (Vero E6 cells): some cytotoxicity was also observed; Inhibition of PL^pro (PL^pro): inhibit; Interaction with remdesivir (SARS-CoV-2 [9]): synergistically
CCC[C@H](NC(=O)[C@@H]1[C@H]2CCC[C@H]2CN1C(=O)[C@@H](NC(=O)[C@@H](NC(=O)c1cnccn1)C1CCCCC1)C(C)(C)C)C(=O)C(=O)NC1CC1 [TEL, Telaprevir]		substantial enzyme inhibition activity	did not inhibit virus replication			Inhibition of M^pro proteolytic activity (M^pro): inhibit
CC[C@@H]1C[C@]1(NC(=O)[C@@H]1C[C@@H]2CN1C(=O)[C@H](C(C)(C)C)NC(=O)OCC(C)(C)CCCCc1cccc3c1CN(C3)C(=O)O2)C(=O)NS(=O)(=O)C1CC1 [VAN, Vaniprevir]	not detected	substantial inhibitory activity	inhibited virus replication with low IC50 values		inhibit	Cytotoxicity in Vero E6 cells, in words (Vero E6 cells): some cytotoxicity was also observed
